{"source": "ChEMBL document CHEMBL1255230", "about": "“Chemical inhibitor of nonapoptotic cell death with therapeutic potential for ischemic brain injury” (Nat Chem Biol, 2005)", "key": {"[1]": {"test": "Inhibition of death receptor signaling mediated necroptotic cell death in human Jurkat cell deficient in FADD assessed as cell viability after 30 hrs by ATP based viability assay in presence of TNFalpha"}, "[2]": {"test_system": "Mus musculus", "test": "Inhibition of necroptosis in icv dosed mouse middle cerebral artery occlusion induced ischemic injury model assessed as reduction of infarct volume drug administered 4 hrs postocclusion", "format": "functional, organism-based"}, "[3]": {"test_system": "Mus musculus", "test": "Inhibition of necroptosis in icv dosed mouse middle cerebral artery occlusion induced ischemic injury model assessed as reduction of infarct volume drug administered 6 hrs postocclusion", "format": "functional, organism-based"}, "[4]": {"test_system": "Mus musculus", "test": "Inhibition of necroptosis in mouse middle cerebral artery occlusion induced ischemic injury model assessed as reduction of infarct volume at 2-4 mM, icv before occlusion", "format": "functional, organism-based"}, "[5]": {"test_system": "Mus musculus", "test": "Inhibition of necroptosis in mouse middle cerebral artery occlusion induced ischemic injury model assessed as reduction of infarct volume at 2-4 mM, icv after occlusion", "format": "functional, organism-based"}, "[6]": {"test_system": "Mus musculus", "test": "Inhibition of necroptosis in icv dosed mouse middle cerebral artery occlusion induced ischemic injury model assessed as improvement in neurological score drug administration before occlusion", "format": "functional, organism-based"}, "[7]": {"test_system": "Mus musculus", "test": "Inhibition of necroptosis in icv dosed mouse middle cerebral artery occlusion induced ischemic injury model assessed as improvement in neurological score drug administration after occlusion", "format": "functional, organism-based"}, "[8]": {"test_system": "Mus musculus", "test": "Inhibition of caspase3 in icv dosed mouse middle cerebral artery occlusion induced ischemic injury model after 3 hrs by Western blot method drug administered before occlusion", "format": "functional, organism-based"}, "[9]": {"test_system": "Mus musculus", "test": "Inhibition of necroptosis in icv dosed mouse middle cerebral artery occlusion induced ischemic injury model assessed as reduction of infarct volume drug administered 5 mins preocclusion", "format": "functional, organism-based"}, "[10]": {"test_system": "Mus musculus", "test": "Inhibition of necroptosis in icv dosed mouse middle cerebral artery occlusion induced ischemic injury model assessed as reduction of infarct volume drug administered 2 hrs postocclusion", "format": "functional, organism-based"}, "[11]": {"test_system": "Mus musculus", "test": "Inhibition of necroptosis in icv dosed mouse middle cerebral artery occlusion induced ischemic injury model assessed as induction of LC3-II after 5 hrs by Western blot method", "format": "functional, organism-based"}, "[12]": {"test_system": "Mus musculus", "test": "Inhibition of necroptosis in icv dosed mouse middle cerebral artery occlusion induced ischemic injury model assessed as induction of LC3-II after 8 hrs by Western blot method", "format": "functional, organism-based"}, "[13]": {"test_system": "Mus musculus", "test": "Inhibition of necroptosis in icv dosed mouse middle cerebral artery occlusion induced ischemic injury model assessed as induction of LC3-II after 26 hrs by Western blot method", "format": "functional, organism-based"}, "[14]": {"test_system": "Mus musculus", "test": "Inhibition of necroptosis in icv dosed mouse middle cerebral artery occlusion induced ischemic injury model assessed as induction of LC3-II by Western blot method drug administered 4 hrs postocclusion", "format": "functional, organism-based"}, "[15]": {"test_system": "Mus musculus", "test": "Inhibition of necroptosis in icv dosed mouse middle cerebral artery occlusion induced ischemic injury model assessed as induction of LC3-II by Western blot method drug administered 6hrs postocclusion", "format": "functional, organism-based"}, "[16]": {"test_system": "Mus musculus", "test": "Inhibition of necroptosis in icv dosed mouse middle cerebral artery occlusion induced ischemic injury model assessed as induction of LC3-II by Western blot method drug administered 8 hrs postocclusion", "format": "functional, organism-based"}, "[17]": {"test_system": "Jurkat", "test": "Ratio of compound IC50 to Nec-1 IC50 for human jurkat cells", "format": "functional"}, "[18]": {"test_system": "Mus musculus", "test": "Inhibition of necroptosis in icv dosed mouse middle cerebral artery occlusion induced ischemic injury model assessed as reduction of infarct volume", "format": "functional, organism-based"}}, "note": "Active and inactive are the calls of the source. The calls are words filed in the database; no cut-off is given here. Residues, ends and D or L forms follow the SMILES beside them. *: point of attachment. Cbz = O=C(OCc1ccccc1)*; CH2F = FC*", "data": [{"smiles": "CN1C(=O)NC(Cc2c[nH]c3c(Cl)cccc23)C1=O", "note": "(configuration not stated)", "values": [{"measurement": "IC50", "setting": "[1]", "value": 206, "unit": "nM"}, {"measurement": "inhibition", "setting": "[2]", "value": "Active"}, {"measurement": "inhibition", "setting": "[3]", "value": "Active"}]}, {"smiles": "CN1C(=O)C(Cc2c[nH]c3c(Cl)cccc23)NC1=S", "note": "(configuration not stated)", "values": [{"measurement": "IC50", "setting": "[1]", "value": 182, "unit": "nM"}, {"measurement": "inhibition", "setting": "[4]", "value": "Dose-dependent effect"}, {"measurement": "inhibition", "setting": "[5]", "value": "Dose-dependent effect"}, {"measurement": "inhibition", "setting": "[6]", "value": "Dose-dependent effect"}, {"measurement": "inhibition", "setting": "[7]", "value": "Dose-dependent effect"}, {"measurement": "inhibition", "setting": "[8]", "value": "inactive"}, {"measurement": "inhibition", "setting": "[3]", "value": "Active"}, {"measurement": "inhibition", "setting": "[9]", "value": "Active"}, {"measurement": "inhibition", "setting": "[10]", "value": "Active"}, {"measurement": "Activity", "setting": "[11]", "value": "Active"}, {"measurement": "Activity", "setting": "[12]", "value": "Active"}, {"measurement": "Activity", "setting": "[13]", "value": "Active"}, {"measurement": "Activity", "setting": "[14]", "value": "Active"}, {"measurement": "Activity", "setting": "[15]", "value": "Active"}, {"measurement": "Activity", "setting": "[16]", "value": "Active"}, {"measurement": "fold change (FC)", "setting": "[17]", "value": 2.7}]}, {"smiles": "O=C1NC(=S)NC1Cc1c[nH]c2ccccc12", "note": "(configuration not stated)", "values": [{"measurement": "inhibition", "setting": "[18]", "value": "inactive"}]}, {"smiles": "CC(C)[C@H](NC(=O)OCc1ccccc1)C(=O)N[C@@H](C)C(=O)N[C@@H](CC(=O)O)C(=O)CF", "note": "(Cbz-Val-Ala-Asp-CH2F)", "values": [{"measurement": "inhibition", "setting": "[8]", "value": "Active"}, {"measurement": "inhibition", "setting": "[3]", "value": "inactive"}]}]}
